# According to patent publication US7763281B2, “Antihypertensive peptide and use thereof” (Da-Yeh University, priority 2007, dated 2010):
# Where two headings read alike, the source gives them in different places. Ends that are not written are not given here.
# How the values were obtained:
# [1] = test system: spontaneously hypertensive rats (SHRs); experiment: Change of SBP and DBP in SHRs by tail-cuff method after single oral administration; type: in vivo, rat; settings: single oral dose 1 mg/kg BW
# Protocol: Therefore, the antihypertensive activity of the aforementioned supernatant powder of the fermented dairy product were measured in SHRs and normotensive rats (Wistar-Kyoto rats, WKYs) to evaluate its potential applications to functional food for preventing hypertension. The male SHRs and male WKYs used in the present and following examples were purchased from National Laboratory Animal Center (Taipei, Taiwan) and fed with laboratory chow (Rodent laboratory chow 5001, Purina Co., USA). Blood pressures including SBP and DBP of 8- to 18-wk-old SHRs (body weight, 330-360 g) and 8- to 18-wk-old WKYs (body weight, 350-380 g) were measured by the tail-cuff method employing a tail-cuff detection system (Softron BP16; Softron, Tokyo, Japan). The antihypertensive activities of the test samples were evaluated by measuring the changes in SBP and DBP of SHRs and WKYs during 0-10 h after oral administration of respective samples.
# [2] = test system: spontaneously hypertensive rats (SHRs); settings: cited from earlier work
# [3] = type: in vitro ADME
# Protocol: Briefly, the peptide was digested with a pepsin solution (pH 2.5) (EC 3.4.23.1; 1:10000; Sigma, USA) for 1.5 h at 37° C., followed by digestion with Corolase PP (pH 7.5) (pancreatic protease; Rohm, Darmstadt, German) for 2.5 h at 37° C. To remove the enzyme added, the digested peptide solution was filtered through a 3 kDa cut-off centrifugal filter (Microcon YM-3, 3 kDa NMWL, Millipore Co., USA) by centrifugation at 1,000×g for 10 min. The filtrate was then used in the analysis for peptide fragments by MALDI-TOF-MS (matrix-assisted laser desorption ionization-time of flight mass spectrometry).
substance,measurement,setting,value
"KVLPVP [known peptide from casein hydrolysate (Maeno et al., 1996), synthetic comparator]",maximal decrease in SBP,[1]; at 2 h,27.8±3.3 mmHg
same,maximal decrease in DBP,[1]; at 5 h,17.5±4.2 mmHg
"KVLPVPQ [known peptide from casein hydrolysate (Maeno et al., 1996), synthetic comparator]",decrease of SBP,"[2]; single oral administration of 2 mg/kg BW, at 6 h (Maeno et al., 1996)",31.5±5.6 mmHg
same,maximal decrease in SBP,[1]; at 3 h,29.2±4.0 mmHg
same,maximal DBP decrease,[1]; at 4 h,14.4±3.2 mmHg
VLSLSQPKVLPVPQKAVPQ [Val-Leu-Ser-Leu-Ser-Gln-Pro-Lys-Val-Leu-Pro-Val-Pro-Gln-Lys-Ala-Val-Pro-Gln],peptide fragments after simulated gastro-intestinal digestion,[3],did not contain Lys-Val-Leu-Pro-Val-Pro (SEQ ID NO: 3) or Lys-Val-Leu-Pro-Val-Pro-Gln (SEQ ID NO: 4)
"Val-Pro-Pro (VPP; Peptide derived from casein) [tripeptide derived from β-casein, synthesized and tested as positive control]",decrease of SBP,"[2]; dose 1.6 mg/kg BW, at 6 h after oral administration (Nakamura et al., 1995)",20 mmHg
same,maximal DBP decrease,[1]; at 4 h,18.0±2.1 mmHg
same,maximal SBP decrease,[1]; at 4 h,26.3±3.2 mmHg
